Data set [1] in a line: Plasma PK in cynomolgus macaques. The data set is classed as in vivo. The following applies: non-human primates.
Another data set is described as follows: PK and PD. The class given is in vivo. Conditions: ferrets.
Data set [2] has as its system A/California/07/2009 (H1N1). Further details: species or system ferrets. Conditions: in vivo.
Data set [3] concerns A/Wisconsin/67/2005 (H3N2). Further details: species or system ferrets. Conditions: in vivo.
Data set [4] deals with ferret lung nuclear (TNFα) and mitochondrial (COX15) mRNAs. The following applies: in vivo, po, 100 mg/kg.
Data set [5] is described as follows: PK of NHC and EIDD-2801 in mice.
Data set [6] relates to Ca/09, Wi/05, and B/Brisbane/60/2008. In words: microbe, parasite or virus in culture. The class given is cell-based, human airway epithelia.
For a further data set, the system named is Ca/09. In words: cells. The data set is classed as cell-based, human airway epithelia.
The test system of data set [7] is well-differentiated human airway epithelia.
Data set [8] deals with HBTECs mitochondrial (COX1) and nuclear (SDH-A) protein expression.
Another data set in a line: in vitro. The following applies: human.
In data set [9] the test system is HBTEC nuclear (SDH-A) and mitochondrial (COX1) mRNAs. In words: Transitions in host mRNA of HBTECs. Conditions: 72 hours.

The results in this text go back to PMC6848974 (Science translational medicine, 2019).

pEC50: −log10 of the molar value. “Also recorded” adds a separate entry of the source.

Turning to `CC(C)C(=O)OC[C@H]1O[C@@H](n2ccc(NO)nc2=O)[C@H](O)[C@@H]1O` [EIDD-2801], the “oral bioavailability compared to NHC” value in [1] is reported as “increased oral bioavailability”. The “oral bioavailability compared to NHC” value in “PK and PD” (oral) was “increased oral bioavailability”. Moreover, the “tolerability (phenotypically appreciable adverse effects)” value in “PK and PD” (seven b.i.d. oral doses at 100 mg/kg) is reported as “well tolerated”. The “drug accumulation on repeat dosing” value in “PK and PD” (single versus multi-dose oral b.i.d.) was “does not lead to drug accumulation”. For the same molecule, in [2], the “cellular infiltrates in nasal cavities and blood lymphocyte counts” value is given as “remained unchanged”; the duration of fever result is “shortened; also recorded: significantly (P <0.0001 and P = 0.03, respectively) reduced”; the “reduction of shed viral titers” value is ≥ 4 orders of magnitude; the “reduction of tissue (nasal turbinate) viral titers” value is “more than 4 orders of magnitude”. In data set [2], the “relative cytokine and CXCL10 induction” value is given as “significantly lowered”; the shed virus load result was “dropped by several orders of magnitude; also recorded: significantly (P <0.0001 and P = 0.03, respectively) reduced”; the “shed virus load in nasal lavages” value is “at or below limit of detection”; the “time at which fever started to decline” value is recorded as “approximately 1.5 days after infection”. In data set [2], the “viral titers in bronchioalveolar lavages and lung tissue” value is “significantly reduced”; the “virus burden in nasal turbinates and tracheas” value is “reduction of several orders of magnitude”; the “virus in lung sections by immunohistochemistry” value was “immunohistochemically undetectable”. Further, in [3], the “reduction of shed viral titers” value is reported as ≥ 4 orders of magnitude, the “shed virus load in nasal lavages” value is on record as “at or below limit of detection” and the “tissue (nasal turbinate) viral titers” value is on record as “undetectable”. Moreover, the “transition frequencies in nuclear and mitochondrial message versus vehicle” value in data set [4] is given as “indistinguishable”. For the same molecule, the “hydrolysis in vivo after absorption (only free NHC detected in plasma)” value in data set [5] was “efficiently hydrolyzed”.
As for `O=c1nc(NO)ccn1[C@@H]1O[C@H](CO)[C@@H](O)[C@H]1O` [NHC, N^4-hydroxycytidine], in [6], the “EC50 in human epithelia lower than in immortalized cell lines” value is reported as 25-50 fold, the concentration for an effect of 99% (EC99) fell in the range of 0.15 to 0.25 µM, the “antiviral effect in infected differentiated epithelia” value is on record as “sterilizing” and the robust efficacy threshold result is “approximately 0.2 μM”. Moreover, in data set [6] (Influenza A virus, in Homo sapiens, 72 h), the pEC50 was 7.10 to 7.22. Further, the “apically released virus load” value in the data set on Ca/09 is “significantly reduced”. Besides, in data set [7], the cytotoxicity threshold is around 50 µM. Also, the “impact on mitochondrial versus nuclear protein expression” value in data set [8] was “significantly greater”. Besides, the CC50 in “in vitro” stood at 137000 nM. Moreover, the “off-target effects (transition mutations in host mRNAs)” value in [9] (1.8 μM NHC) was “no off-target effects”. Besides, the “transition mutations in host mRNAs” value in [9] (higher NHC concentrations (50 μM, 10 μM)) was “increased C to U and U to C transitions”.
For `CCC(CC)O[C@@H]1C=C(C(=O)O)C[C@H](N)[C@H]1NC(C)=O` [oseltamivir carboxylate, reference compound], in the data set with Ca/09 (Homo sapiens, 72 h), the pEC50 is 6.72.
For the molecule `CCOC(=O)C1=C[C@@H](OC(CC)CC)[C@H](NC(C)=O)[C@@H](N)C1` [oseltamivir, oseltamivir-phosphate, reference compound], in [2], the “bronchiolar inflammation in lung sections versus EIDD-2801 therapeutic groups” value is reported as “more pronounced” and the “inhibitory effect on shed virus titer” value is listed as “no significant (P ≥0.13) inhibitory effect”.

A word on the EC99: it is the concentration needed for an effect of 99%. Usually pEC50 stands for −log10 of the EC50, conventionally taken in molar units. Read a low pEC50 as a high EC50.
